Results taken from patent US11980596B2 (priority 2017, dated 2024).

What was measured:
[1] = system: subjects with MDD at imminent risk for suicide; assay: SIBAT clinical global judgment of suicide risk ([…]2001); format: in vivo, human
Excerpt: The clinical global judgment of suicide risk (Module 8) summarizes clinician overall judgment of suicide risk as derived from information gathered from the full SIBAT tool. It operates like numerous other CGI-severity scales that have been used in other psychiatric studies. Change in the clinical global judgment of suicide risk is designed to directly identify clinical meaningful changes in suicidal ideation and to permit classification of suicide risk.
The analysis of the change in SIBAT score was based on an ANCOVA model on ranks of change in SIBAT with treatment, antidepressant therapy, and analysis center as factors, and baseline value (unranked) as a covariate. There was a significant difference (two-sided […]) between the two treatment groups when comparing the mean rank of change from baseline at Day 1: 4-hours postdose in favor of esketamine 84 mg See, Table 58. See, FIG. 39. […] This difference was not evident at the Day 25 DB endpoint. See, FIG. 40, which is based on LOCF data and analyzed using Cochran-Mantel-Haenszel test controlling for analysis center and antidepressant therapy.

[2] = system: subjects with MDD at imminent risk for suicide; format: in vivo, human; settings: post dose
Protocol: Transient blood pressure increases peaked for the esketamine group at approximately 40 minutes post dose with the maximum mean increases (across all dosing days) in systolic BP being 8.7 in the placebo group and 16.7 in the esketamine 84 mg group. The maximum mean increases (across all dosing days) in diastolic BP were 7.6 in the placebo group and 11.9 in the esketamine 84 mg group. […] See, FIGS. 46 and 47.

[3] = system: subjects with TRD; format: in vivo, human; settings: post dose
Protocol: Transient blood pressure increases peaked for the esketamine group at approximately 40 minutes post dose and returned closer to predose levels by 1.5 hours post dose.

[4] = single dose; 72 mg
Protocol: This study includes a single dose and 14-day repeated dose neurotoxicity studies with intranasally administered esketamine in female rats 12 to 14 weeks of age. These studies were conducted to investigate whether single or repeated intranasal administrations of esketamine induced neurodegenerative changes in the rat brain. The study results were used to estimate an esketamine exposure-based safety margin compared with the maximum dose of esketamine administered intranasally to depressed adult patients in clinical trials.
The vehicle- and the 36 and 54 mg-dosed groups consisted of 24 animals per group, while the 72 mg-dosed and positive control groups involved 30 animals per group. Four satellite animals were added to the esketamine HCl-dosed groups of main study animals for toxicokinetic (TK) purposes. In these animals the plasma exposure to esketamine was measured on the day of dosing at various time points up to and including 24 hours after the first instillation.

[5] = system: patients with treatment-resistant depression (TRD); assay: CGI-S (Example 7); format: in vivo, human
Protocol: (§1) Overall illness severity was assessed on the Clinical Global Impression of Severity (CGI-S) scale (Guy, “ECDEU Assessment Manual for Psychopharmacology—Revised (DHEW Publ No ADM 76-338)”, Rockville, Md.: U.S. Department of Health, Education, and Welfare, Public Health Service, Alcohol, Drug Abuse, and Mental Health Administration, NIMH Psychopharmacology Research Branch, Division of Extramural Research Programs; 1976, pp 218-222). Participants assessed their severity of anxiety on the Generalized Anxiety Disorder 7-item (GADS-7) Scale (See, Tables 157 and 158). See, Spitzer, “A brief measure for assessing generalized anxiety disorder—the GAD-7”, Arch. Intern. Med., 2006, 166(10): 1092-1097.

[6] = system: patients with treatment-resistant depression (TRD); assay: GAD-7 (Example 7); format: in vivo, human
Protocol: as §1

[7] = system: patients with treatment-resistant depression (TRD); assay: Vital signs: blood pressure and heart rate (Example 7); format: in vivo, human; settings: post-dose
Protocol: Adverse events were monitored throughout the study. Other safety assessments (i.e., laboratory tests, vital signs, physical examination) were performed at pre-specified time points. Vital signs, the Clinician Administered Dissociative States Scale (CADSS; Bremner, “Measurement of dissociative states with the clinician-administered dissociative states scale (CADSS)”, J. Traumatic Stress, 1998, 11(1):125-136), and the 4-item positive symptom subscale from the Brief Psychiatric Rating Scale (BPRS; Overall, “The Brief Psychiatric Rating Scale. Psychological Reports”, 1962, 10:799-812) were assessed pre-dose, at 40 minutes, and 2 hours post-dose.

[8] = system: transgenic (Tg.rasH2) mice; assay: 6-month study in transgenic (Tg.rasH2) mice; format: in vivo, mouse; settings: once-daily subcutaneous up to 75 mg/kg/day (reduced to 40 mg/kg/day during week 17); 6 months
[9] = system: adult subjects with TRD; settings: post dose
Protocol: Blood pressure and pulse/heart rate measurements were assessed supine with a completely automated device. Manual techniques were used only if an automated device is not available. Blood pressure and pulse/heart rate measurements were preceded by at least 5 minutes of rest in a quiet setting without distractions (e.g., television, cell phones).
Descriptive statistics of temperature, pulse/heart rate, respiratory rate, pulse oximetry, and blood pressure (systolic and diastolic) (supine) values and changes from baseline were summarized at each scheduled time point. The percentage of subjects with values beyond clinically important limits were summarized.

[10] = system: elderly subjects with TRD; settings: post dose
Protocol: The Clinician Administered Dissociative States Scale (CADSS) was measured prior to the start of each dose, at 40 minutes, and 1.5 hours postdose.

[11] = system: adult female rats; settings: single intranasal dose; 200-gram rat
[12] = system: glutamate NMDA receptor; settings: cited from earlier work
[13] = system: P-gp, BCRP, OATP1B1, OATP1B3, MATE1, MATE2-K, OCT2, OAT1, OAT3; assay: Transporter substrate and inhibition studies; settings: not told
[14] = Clinical pharmacokinetics of esketamine (label)
[15] = Period 1, esketamine 28 mg intranasal
[16] = Period 1, esketamine 56 mg intranasal
[17] = Period 1, esketamine 84 mg intranasal
[18] = Period 2, esketamine 28 mg intranasal
[19] = Period 2, esketamine 56 mg intranasal
[20] = Period 2, esketamine 84 mg intranasal
[21] = human, plasma, other: nasal spray

CN[C@]1(c2ccccc2Cl)CCCCC1=O [esketamine, (S)-2-(2-chlorophenyl)-2-(methylamino)cyclohexanone]
SIBAT Clinical Global Judgment of Suicide Risk: change vs placebo ([1]; 84 mg, Day 1: 4-hours postdose and Day 2): statistically superior
SIBAT Clinical Global Judgment of Suicide Risk, Day 1 (DB): 4H, Median (Range) ([1]; esketamine 84 mg, LOCF, ITT, N = 33): 5.0 (0; 6)
SIBAT Clinical Global Judgment of Suicide Risk, Change from Baseline to Day 1 (DB): 4H, Median (Range) ([1]; esketamine 84 mg, LOCF, ITT, N = 33, negative change = improvement): 0.0 (−6; 1)
SIBAT Clinical Global Judgment of Suicide Risk, Day 2 (DB), Median (Range) ([1]; esketamine 84 mg, LOCF, ITT, N = 35): 5.0 (0; 6)
SIBAT Clinical Global Judgment of Suicide Risk, Change from Baseline to Day 2 (DB), Median (Range) ([1]; esketamine 84 mg, LOCF, ITT, N = 35, negative change = improvement): −1.0 (−6; 1)
SIBAT Clinical Global Judgment of Suicide Risk, Baseline (DB), Median (Range) ([1]; esketamine 84 mg, predose Day 1, ITT, N = 35): 6.0 (5; 6)
Blood pressure returning to normal range by [2]: ≤ 2 h
Blood pressure returned closer to predose levels by [3]: ≤ 1.5 h
Time of peak of transient blood pressure increases [3]: approximately 40 minutes
AUC-based safety margin compared with the maximum 84 mg clinical dose [4]: ~86 fold
Cmax-based safety margin compared with the maximum 84 mg clinical dose [4]: approximately 60 fold
CGI-S Median (Range) at end point [5, 15]: 4.0 (3, 5)
CGI-S Median Change (Range) [5, 15]: −1.0 (−2, 1)
CGI-S Median (Range) at end point [5, 16]: 4.0 (1, 5)
CGI-S Median Change (Range) [5, 16]: −1.0 (−3, 0)
CGI-S Median (Range) at end point [5, 17]: 4.0 (1, 6)
CGI-S Median Change (Range) [5, 17]: −0.5 (−4, 0)
CGI-S Median (Range) at end point [5, 18]: 4.0 (3, 5)
CGI-S Median Change (Range) [5, 18]: −1.0 (−1, 0)
CGI-S Median (Range) at end point [5, 19]: 5.0 (4, 6)
CGI-S Median Change (Range) [5, 19]: −1.0 (−2, 0)
CGI-S Median (Range) at end point [5, 20]: 4.0 (3, 5)
CGI-S Median Change (Range) [5, 20]: −1.0 (−2, 0)
GAD-7 change from baseline, LS mean (SE) [6, 15]: −1.5 (1.34)
GAD-7 change from baseline, LS mean (SE) [6, 16]: −3.1 (1.34)
GAD-7 change from baseline, LS mean (SE) [6, 17]: −5.1 (1.30)
GAD-7 change from baseline, LS mean (SE) [6, 18]: −1.6 (0.87)
GAD-7 change from baseline, LS mean (SE) [6, 19]: 1.0 (0.98)
GAD-7 change from baseline, LS mean (SE) [6, 20]: −0.9 (1.02)
Elevated blood pressure returned to the normal range by [7]: ≤ 2 h
Incidence of tumors [8]: did not increase the incidence of tumors
Blood pressure returned to normal range at [9]: 90 min
Time of peak of transient blood pressure increases [9]: approximately 40 minutes
Dissociative and perceptual change symptoms (CADSS) resolved by [10]: ≤ 1.5 h
Highest dose equivalent with no findings of neuronal vacuolation in the brain [11]: 45 mg/kg
Affinity for the glutamate NMDA receptor in vitro, fold greater than R-ketamine [12]: 3 to 4 fold
Inhibition of P-gp, BCRP, OATP1B1, OATP1B3, MATE1, MATE2-K, OCT2, OAT1 or OAT3 [13]: do not inhibit
Substrate of P-gp, BCRP, OATP1B1 or OATP1B3 [13]: not a substrate
Time to reach maximum plasma concentration ([14]; after the last nasal spray of a treatment session): 20 to 40 min
Presence in human milk ([14]; human, in vivo): present in human milk
bioavailability ([14]; human, plasma, inhaled or intranasal): ~48%
clearance ([14]; human, plasma, iv): ~1480 mL/min
Inter-subject variability, AUC∞ [14, 21]: 18% to 45
Inter-subject variability, Cmax [14, 21]: 27% to 66
Intra-subject variability, AUC∞ [14, 21]: ~10%
Intra-subject variability, Cmax [14, 21]: approximately 15%
Dose excreted as unchanged drug in urine ([14]; nasal): Less than 1%
Accumulation in plasma ([14]; twice a week administration): No accumulation
